The source of these data is patent US8592603B2, “Synthesis of 2-(4-aminophenyl) benzothiazole derivatives and use thereof” (Kaohsiung Medical University, priority 2011, dated 2013).

Each structure is given as a SMILES string.

For series [1], the system named is human dermal fibroblast cells. In words: Morphology observation and annexin V/PI binding assay on normal cells. The series is classed as cell-based. The note with it: 4 μM for 4 h, 1 J/cm2 UVA (FIG. 4C). As for the experimental part: (A) The increased enzymatic activities of the caspase-3 in apoptotic were determined by colorimetric reaction. The cleavage of peptide by the caspase releases the chromophore pNA (p-nitroaniline), which can be quantified spectrophotometrically at a wavelength of 405 nm. (B) Dot plots for BCC cells treated with various concentrations of 6f-UVA and then stained with PI and an annexin V-FITC conjugate specifically detecting the exposure of PS residues at the cell surface. (C) Morphological observation and annexin V/PI double stain were used for the detection of fibroblasts apoptosis. Approximately 10000 cells from each group were analyzed by flow cytometry. Data shown are of a representative experiment repeated three times with similar results. ** p<0.01 as compared with the control.
To assess the simultaneous observation of early phase of apoptotic and necrotic features, BCC cells were treated with various concentrations (0-4 μM) of Formula 6f for 4 h before irradiation. Twenty-four hours after irradiation, cells were harvested by trypsinization and centrifugation and measured by cytometry by adding annexin V-FITC to […] per sample according to the manufacturer's specifications (Bender MedSystems, Vienna, Austria). Simultaneously, the cells were stained with PI. Flow cytometry data were analyzed by the WinMDI software.
BCC or fibroblasts (5×10^5 cells/well) seeded on 6 well plate. […]

The subject of the next series is BCC cells. Put plainly: Assessment of mitochondrial membrane potential (DiOC6). The class given is cell-based, human. The note with it: dosages equal to or greater than 2 μM, 1 J/cm^2 UVA (FIG. 5B). As for the experimental part: (A) 6f-UVA induced ROS generation in BCC cells. Histogram of fluorescence vs cell count in BCC cells with various concentrations of 6f-UVA and stained with DCFH-DA. As a control, ROS was measured in the presence of catalase, a H2O2 scavenger. (B) The ΔΨmt of BCC cells after exposure to 6f-UVA. Cells were treated with 0, 2, and 4 μM Formula 6f for 4 h followed by 1 J/cm2 UVA irradiation, then stained with DiOC6 and analyzed immediately by flow cytometry as described under Materials and Methods. The number in M1 indicates the percentage of cells with reduced ΔΨmt. Approximately 10000 cells from each group were analyzed by flow cytometry. (C) Relative ATP levels were calculated as the percentage of the 0 μM level. Similar results were obtained in three independent experiments. *p<0.05, ** p<0.01 as compared with the control.
BCC cells were cultured in 35-mm dishes and allowed to reach exponential growth for 24 h before treatment. Cells were pretreated with […] Formula 6f for 4 h before 1 J/cm^2 UVA irradiation. The medium was removed and the adherent cells trypsinized. […] The samples were analyzed immediately for fluorescence (FL-1 detector, filter 530/30 nm band pass) on a FACScan flow cytometer (Elite ESP, Beckman Coulter, Brea, Calif.). Histograms were analyzed using Windows Multiple Document interface software (WinMDI).

A further series deals with p38. Put plainly: Western blot analysis of MAPK phosphorylation: p38. The class given is cell-based, human. The settings on record: BCC cells, 6f-UVA at 4 μM, compared with untreated control (FIG. 6A). As for the experimental part: (A) After exposure to different concentration of 6f-UVA, cell lysates were collected and immunoblotted with specific antibodies as indicated. For the internal control, the same amounts of protein extract were also probed with antibody against actin. (B) As a control, the expression level of p-ERK was determined in the presence of oligomycin (25 μM) and ATP (1×10^−4M)
Total cell extracts from cultured BCC cells were obtained by lysing the cells in ice-cold RIPA buffer (1×PBS, 1% NP-40, 0.5% sodium deoxycholate, 0.1% SDS) containing 100 μg/mL PMSF, 2 μg/mL aprotinin, 2 μg/mL leupeptin and 100 μg/mL NaF. After centrifugation at 14,000 g for 30 min, protein in the supernatants was quantified by Bradford method (Bio-Rad). Forty micrograms of protein per lane was applied in 10% SDS-poly-acrylamide gel. After electrophoresis, protein was transferred from the gel to polyvinylidene difluoride (PVDF) membrane (Millipore, Bedford, Mass.). The membranes were blocked at room temperature for 1 h in PBS+0.1% Tween 20 (PBS-T) containing 5% skim milk. After being briefly rinsed with PBS-T, the blots were probed with respective primary antibodies at room temperature for 2 h or at 4° C. overnight. […] The relative amounts of specific proteins were quantified by densitometry scanning of X-ray films and analyzed by Eagle Eye Image System (Stratagene, La Jolla, Calif.)
A general note: A western blot detects proteins with antibodies after separation by electrophoresis.

Turning to `Nc1ccc(-c2nc3ccc(C(F)(F)F)cc3s2)cc1` [Formula 6f, 2-(4-Aminophenyl)-6-trifluoromethylbenzothiazole], in series [1], the “apoptotic activity on normal cells” value was “no significant apoptotic effect”. Besides, the “mitochondrial membrane potential (ΔΨmt)” value with BCC cells is given as “significant decline”. For the same compound, the “phosphorylation of p38 (p-p38)” value in the series on p38 is “increased”.
